Experimental data as given in EP0908457B1, “3-(1,2-benzisothiazol- and isoxazol-5-Y1)-2,4(1H,3H)-pyrimidinedione or thione and 3-(1,2-benzisothiazol- and isoxazol-5-y1)-4(3H)-pyrimidinone or thione herbicidal agents” (BASF AKTIENGESELLSCHAFT, priority 1997, dated 1999).

Columns and labels:
[1] = test system: Echinochloa oryzoides (Ard.) Fritsch.; test: Preemergence weed control under flooded paddy conditions, ECHORC (Watergrass (Calif.)); type: in vivo; conditions: flooded paddy; for ECHORC: herbicidal effect rating 0-9, three to four weeks after treatment; as to herbicidal effect rating, ECHORC: meaning of each grade not given here
Cyperus iria = test: Preemergence weed control under flooded paddy conditions, CYPIR (Rice Flatsedge); type: in vivo; conditions: flooded paddy; for CYPIR: herbicidal effect rating 0-9, three to four weeks after treatment; as to herbicidal effect rating, CYPIR: meaning of each grade not given here
Sagittaria pygmaea, L. = test: Preemergence weed control under flooded paddy conditions, SAGPY (Arrowhead (Pygmaea)); type: in vivo; conditions: flooded paddy; for SAGPY: herbicidal effect rating 0-9, three to four weeks after treatment; as to herbicidal effect rating, SAGPY: meaning of each grade not given here
[2] = test system: Cyperus serotinus, Rottb.; test: Preemergence weed control under flooded paddy conditions, CYPSE (Flatsedge); type: in vivo; conditions: for CYPSE: herbicidal effect rating 0-9, three to four weeks after treatment; as to herbicidal effect rating, CYPSE: meaning of each grade not given here
[3] = test system: Monochoria vaginalis, Presl.; test: Preemergence weed control under flooded paddy conditions, MOOVA (Monochoria); type: in vivo; conditions: flooded paddy; for MOOVA: herbicidal effect rating 0-9, three to four weeks after treatment; as to herbicidal effect rating, MOOVA: meaning of each grade not given here
[4] = test system: Oryza sativa, (L.) Tebonnet; test: Rice tolerance to post-transplant applications under flooded paddy conditions (Example 187), ORYSAT (Rice, Tebonnet); conditions: for ORYSAT: herbicidal effect rating 0-9, three to four weeks after treatment; as to herbicidal effect rating ORYSAT: meaning of each grade not given here
[5] = 0.0313 kg/ha, preemergence, rated three to four weeks after treatment
[6] = 0.0625 kg/ha, preemergence, rated three to four weeks after treatment
[7] = 0.1250 kg/ha, preemergence, rated three to four weeks after treatment
[8] = 0.2500 kg/ha, preemergence, rated three to four weeks after treatment
[9] = 0.1250 kg/ha, rated three to four weeks after treatment
[10] = 0.2500 kg/ha, rated three to four weeks after treatment
[11] = 0.0320 kg/ha, preemergence, rated three to four weeks after treatment
[12] = 0.0620 kg/ha, preemergence, rated three to four weeks after treatment
[13] = Rate 0.0320 kg/ha, preemergence, rated 3-4 weeks after treatment
[14] = Rate 0.0620 kg/ha, preemergence, rated 3-4 weeks after treatment
[15] = Rate 0.1250 kg/ha, preemergence, rated 3-4 weeks after treatment
[16] = Rate 0.2500 kg/ha, preemergence, rated 3-4 weeks after treatment
[17] = Rate 0.5000 kg/ha, preemergence, rated 3-4 weeks after treatment
[18] = Rate 0.0320 kg/ha, preemergence weeds, rated three to four weeks after treatment
[19] = Rate 0.0620 kg/ha, preemergence weeds, rated three to four weeks after treatment
[20] = Rate 0.1250 kg/ha, preemergence weeds, rated three to four weeks after treatment
[21] = Rate 0.2500 kg/ha, preemergence weeds, rated three to four weeks after treatment
[22] = 0.0320 kg/ha, preemergence weeds
[23] = 0.0620 kg/ha, preemergence weeds
[24] = 0.1250 kg/ha, preemergence weeds
[25] = 0.2500 kg/ha, preemergence weeds

COc1ccc(C)cc1-c1nsc2ccc(-n3c(=O)cc(C)n(C)c3=O)cc12 [Example 24, 3-[3-(6-Methoxy-m-tolyl)-1,2-benzisothiazol-5-yl]-1,6-dimethyl-2,4(1H,3H)-pyrimidinedione]
4.0: herbicidal effect rating, CYPSE [2, 8] | herbicidal effect rating, MOOVA [3, 5] | herbicidal effect rating, ORYSAT (rice tolerance) [4, 10]
9.0: herbicidal effect rating, MOOVA [3, 7] | herbicidal effect rating, MOOVA [3, 8]
8.0: herbicidal effect rating, CYPIR (Cyperus iria; [8]) | herbicidal effect rating, MOOVA [3, 6]
3.0: herbicidal effect rating, ORYSAT (rice tolerance) [4, 9]
6.0: herbicidal effect rating, CYPIR (Cyperus iria; [7])
0.0: herbicidal effect rating, ECHORC [1, 5] | herbicidal effect rating, ECHORC [1, 6] | herbicidal effect rating, CYPIR (Cyperus iria; [5]) | herbicidal effect rating, SAGPY (Sagittaria pygmaea, L.; [5]) | herbicidal effect rating, SAGPY (Sagittaria pygmaea, L.; [6]) | herbicidal effect rating, SAGPY (Sagittaria pygmaea, L.; [7]) | herbicidal effect rating, SAGPY (Sagittaria pygmaea, L.; [8]) | herbicidal effect rating, CYPSE [2, 5] | herbicidal effect rating, CYPSE [2, 6]
7.0: herbicidal effect rating, ECHORC [1, 8]
2.0: herbicidal effect rating, ECHORC [1, 7] | herbicidal effect rating, CYPIR (Cyperus iria; [6]) | herbicidal effect rating, ORYSAT (rice tolerance) ([4]; 0.0313 kg/ha, rated three to four weeks after treatment) | herbicidal effect rating, ORYSAT (rice tolerance) ([4]; 0.0625 kg/ha, rated three to four weeks after treatment)
1.0: herbicidal effect rating, CYPSE [2, 7]

COC(=O)C(C)Oc1ccc(I)cc1-c1nsc2ccc(-n3c(=O)cc(C(F)(F)F)n(C)c3=O)cc12 (stereo not drawn) [Example 460, Propionic acid, 2-{2-{5-[3,6-dihydro-3-methyl-2,6-dioxo-4-(trifluoromethyl)-1(2H)-pyrimidinyl]-1,2-benzisothiazol-3-yl}-4-iodophenoxy}-, methyl ester]
4.0: MOOVA herbicidal rating [3, 12] | MOOVA herbicidal rating [3, 7] | MOOVA herbicidal rating [3, 8] | ORYSAT herbicidal rating (rice tolerance) ([4]; 0.0320 kg/ha, rated three to four weeks after treatment) | ORYSAT herbicidal rating (rice tolerance) ([4]; 0.0620 kg/ha, rated three to four weeks after treatment) | ORYSAT herbicidal rating (rice tolerance) [4, 9]
0.0: CYPIR herbicidal rating (Cyperus iria; [11]) | SAGPY herbicidal rating (Sagittaria pygmaea, L.; [11]) | SAGPY herbicidal rating (Sagittaria pygmaea, L.; [12]) | CYPSE herbicidal rating [2, 7] | CYPSE herbicidal rating [2, 8]
3.0: CYPIR herbicidal rating (Cyperus iria; [7]) | CYPIR herbicidal rating (Cyperus iria; [8]) | SAGPY herbicidal rating (Sagittaria pygmaea, L.; [7]) | SAGPY herbicidal rating (Sagittaria pygmaea, L.; [8]) | MOOVA herbicidal rating [3, 11]
7.0: ECHORC herbicidal rating [1, 12]
6.0: ECHORC herbicidal rating [1, 11]
5.0: ORYSAT herbicidal rating (rice tolerance) [4, 10]
9.0: ECHORC herbicidal rating [1, 7] | ECHORC herbicidal rating [1, 8]
2.0: CYPIR herbicidal rating (Cyperus iria; [12])

C=CS(=O)(=O)NC(=O)COc1ccccc1-c1nsc2ccc(-n3c(=O)cc(C(F)(F)F)n(C)c3=O)cc12 [Example 557, Acetamide, 2-{o-{5-[3,6-dihydro-3-methyl-2,6-dioxo-4-(trifluoromethyl)-1(2H)-pyrimidinyl]-1,2-benzisothiazol-3-yl}phenoxy}-N-(vinylsulfonyl)-]
6.0: herbicidal effect rating, CYPSE [2, 15] | herbicidal effect rating ORYSAT ([4]; Rate 0.0320 kg/ha, rated 3-4 weeks after treatment)
4.0: herbicidal effect rating, CYPIR (Cyperus iria; [13]) | herbicidal effect rating, SAGPY (Sagittaria pygmaea, L.; [16]) | herbicidal effect rating, SAGPY (Sagittaria pygmaea, L.; [17])
4.3: herbicidal effect rating, ECHORC [1, 13]
0.0: herbicidal effect rating, SAGPY (Sagittaria pygmaea, L.; [13]) | herbicidal effect rating, SAGPY (Sagittaria pygmaea, L.; [14]) | herbicidal effect rating, CYPSE [2, 13]
5.1: herbicidal effect rating, ECHORC [1, 14]
9.0: herbicidal effect rating, ECHORC [1, 16] | herbicidal effect rating, ECHORC [1, 17] | herbicidal effect rating, CYPIR (Cyperus iria; [15]) | herbicidal effect rating, CYPIR (Cyperus iria; [16]) | herbicidal effect rating, CYPIR (Cyperus iria; [17]) | herbicidal effect rating, CYPSE [2, 16] | herbicidal effect rating, MOOVA [3, 13] | herbicidal effect rating, MOOVA [3, 14] | herbicidal effect rating, MOOVA [3, 15] | herbicidal effect rating, MOOVA [3, 16] | herbicidal effect rating, MOOVA [3, 17] | herbicidal effect rating ORYSAT ([4]; Rate 0.2500 kg/ha, rated 3-4 weeks after treatment) | herbicidal effect rating ORYSAT ([4]; Rate 0.5000 kg/ha, rated 3-4 weeks after treatment)
6.3: herbicidal effect rating, ECHORC [1, 15]
2.0: herbicidal effect rating, SAGPY (Sagittaria pygmaea, L.; [15])
8.0: herbicidal effect rating, CYPIR (Cyperus iria; [14]) | herbicidal effect rating ORYSAT ([4]; Rate 0.0620 kg/ha, rated 3-4 weeks after treatment) | herbicidal effect rating ORYSAT ([4]; Rate 0.1250 kg/ha, rated 3-4 weeks after treatment)
5.0: herbicidal effect rating, CYPSE [2, 17]

Cn1c(C(F)(F)F)cc(=O)n(-c2ccc3snc(CN=C=S)c3c2)c1=O [Example 311, Isothiocyanic acid, {5-[3,6-dihydro-3-methyl-2,6-dioxo-4-(trifluoromethyl)-1(2H)-pyrimidinyl]-1,2-benzisothiazol-3-yl}methyl ester]
9.0: herbicidal effect rating, CYPIR (Cyperus iria; [19]) | herbicidal effect rating, CYPIR (Cyperus iria; [20]) | herbicidal effect rating, CYPIR (Cyperus iria; [21]) | herbicidal effect rating, MOOVA [3, 19] | herbicidal effect rating, MOOVA [3, 20] | herbicidal effect rating, MOOVA [3, 21]
0.0: herbicidal effect rating, ECHORC [1, 18] | herbicidal effect rating, ECHORC [1, 19] | herbicidal effect rating, ECHORC [1, 20] | herbicidal effect rating, ECHORC [1, 21] | herbicidal effect rating, CYPIR (Cyperus iria; [18]) | herbicidal effect rating, SAGPY (Sagittaria pygmaea, L.; [18]) | herbicidal effect rating, SAGPY (Sagittaria pygmaea, L.; [19]) | herbicidal effect rating, SAGPY (Sagittaria pygmaea, L.; [20]) | herbicidal effect rating, SAGPY (Sagittaria pygmaea, L.; [21]) | herbicidal effect rating, CYPSE [2, 18] | herbicidal effect rating, CYPSE [2, 19] | herbicidal effect rating, CYPSE [2, 20] | herbicidal effect rating, CYPSE [2, 21] | herbicidal effect rating, MOOVA [3, 18] | herbicidal effect rating ORYSAT ([4]; Rate 0.0320 kg/ha, rated three to four weeks after treatment) | herbicidal effect rating ORYSAT ([4]; Rate 0.0620 kg/ha, rated three to four weeks after treatment)
2.0: herbicidal effect rating ORYSAT ([4]; Rate 0.1250 kg/ha, rated three to four weeks after treatment) | herbicidal effect rating ORYSAT ([4]; Rate 0.2500 kg/ha, rated three to four weeks after treatment)

Cc1ccc(OCC(=O)N(C)S(C)(=O)=O)c(-c2nsc3ccc(-n4c(=O)cc(C(F)(F)F)n(C)c4=O)cc23)c1 [Example 437, Acetamide, 2-{{2-{5-[3,6-dihydro-3-methyl-2,6-dioxo-4-(trifluoromethyl)-1(2H)-pyrimidinyl]-1,2-benzisothiazol-3-yl}-p-tolyl}oxy}-N-methyl-N-(methylsulfonyl)-]
2.0: CYPSE [2, 23]
7.0: ECHORC [1, 23] | ECHORC [1, 24] | SAGPY (Sagittaria pygmaea, L.; [25]) | CYPSE [2, 25] | ORYSAT ([4]; 0.2500 kg/ha)
0.0: CYPIR (Cyperus iria; [22]) | CYPIR (Cyperus iria; [23]) | SAGPY (Sagittaria pygmaea, L.; [22]) | CYPSE [2, 22]
9.0: MOOVA [3, 22] | MOOVA [3, 23] | MOOVA [3, 24] | MOOVA [3, 25]
3.0: SAGPY (Sagittaria pygmaea, L.; [23]) | CYPSE [2, 24]
4.0: CYPIR (Cyperus iria; [24]) | SAGPY (Sagittaria pygmaea, L.; [24]) | ORYSAT ([4]; 0.0320 kg/ha)
8.0: ECHORC [1, 25]
5.0: ECHORC [1, 22] | ORYSAT ([4]; 0.0620 kg/ha)
6.0: CYPIR (Cyperus iria; [25]) | ORYSAT ([4]; 0.1250 kg/ha)
